In patent US5447937A, “CNS active tetrahydrobenzothienopyridines” (SmithKline Beecham p.l.c., priority 1991, dated 1995):

Assays:
[1] = test system: Mice; assay: MES Test (maximal electroshock seizure); type: in vivo, mouse; conditions: 100 mg/kg p.o.
Experimental: The maximal electroshock seizure (MES) test in rodents is one of the most widely used models of human grand mal epilepsy^1. In this model, anticonvulsant agents elevate the threshold to electrically-induced seizures whilst proconvulsants lower the seizure threshold.
Mice (male, Charles River, U.K. CD-1 strain, 25-30 g) are randomly assigned to groups of 10-20 and dosed orally or intraperitoneally at a dose volume of 10 ml/kg with various doses of compound (1-100 mg/kg) or vehicle. Mice are then subjected at 30 or 60 rain post dose to a variable voltage electroshock (0.1 sec., 50 Hz, sine wave form) via a buccal and a subcutaneous electrode. The mean voltage and standard error required to induce a tonic seizure in 50% (CV50) of the mice in the group is determined by the `up and down` method of Dixon and Mood (1948)^2. Statistical comparisons between vehicle- and drug-treated groups are made using the method of Litchfield and Wilcoxon (1949)^3.
If a tonic convulsion does occur, then the voltage is decreased, and so on until all the animals in the group have been tested.
The percentage increase or decrease in CV50 for each group compared to the control is calculated.
Studies are carried out using a Heathkit shock generator with totally variable control of shock level from 0 to 200 V and voltage steps of 5 V are used.
Drugs are suspended in 1% methyl cellulose.

[2] = target: rat cerebral cortex membranes ([35S]-TBPS binding); assay: [35S]-TBPS binding to rat cerebral cortex membranes in vitro; conditions: 2 nM [35S]-TBPS, 5x10^-6 M GABA
Experimental: 2. [^35 S]-TBPS binding to rat cerebral cortex membranes in vitro
Pooled rat cerebral cortices are homogenised in 20 volumes of 0.32M sucrose and centrifuged at 1000 g for 20 minutes (4° C.). The supernatant is removed and recentrifuged at 50,000 g (4° C., 20 mins). The P2 pellet is then suspended in 20 volumes of Tris citrate buffer (pH 7.1) and centrifuged at 50,000 g (4° C., 20 mins). This washing step is repeated three times and the pellet finally resuspended in 20 volumes of buffer and stored at -70° C. prior to use.
The tissue suspension ([…]) is incubated (25° C., 120 mins) with [^35 S]-TBPS (2 nM) in Tris citrate buffer (pH 7.1) containing 0.2M NaCl and 5×10^-6 M GABA. Non-specific binding is measured in the presence of 10^-4 M picrotoxin. Varying concentrations of test drugs (10^-7, 10^-6, 10^-5 and 10^-4 M final concentration) are added in a volume of […]. The total assay volume is […]. Incubation is stopped by rapid filtration using a Skatron cell harvester and radioactivity measured by liquid scintillation spectrometry. IC50 's are calculated as the concentration of test drug to inhibit 50% of specific binding.

[3] = test system: Rats; assay: Geller-Seifter procedure (conflict session, anxiolytic properties); type: in vivo, rat; conditions: FR5 conflict session
Experimental: 1. Geller-Seifter Procedure
Potential anxiolytic properties have been evaluated using the Geller-Seifter procedure based on that originally described by Geller and Seifter, (1960) Psychopharmacologia, 1,482-492.
Rats are trained on a variable interval 30 sec schedule (VI30) to press a lever in order to obtain food reward. The 5 min sessions of the VI30 schedule alternate with 2-5 min of a schedule (FR5) in which every 5th lever press is followed by presentation of a food pellet paired with a 0.5 sec mild footshock. The total study lasts approximately 30 mins. Rats typically respond with high rates of lever pressing under the VI30 schedule and low response rates under the FR5 `conflict` session. Anxiolytic drugs increase the suppressed response rates of rats in `conflict` session.
Drugs are administered intraperitoneally or orally to groups of 3-8 rats 30 min before testing.
The results are expressed as the percentage increase in square root of the total number of lever presses in the FR5 `conflict` session. Square root transformation is necessary to normalise the data for statistical analysis using parametric methods (ANOVA).

Compound | IC50 [2] [µM] | CV50 (voltage inducing tonic seizure in 50% of mice) [1] | responding in the 'conflict' session ([3]; 20 mg/kg p.o.) | responding in the 'conflict' session ([3]; 10 mg/kg p.o.)
CCOC(=O)c1c(C)nc2sc3c(c2c1N)CCC(O)C3 (racemic) [Example 1, (±)-4-Amino-7-hydroxy-2-methyl-5,6,7,8-tetrahydrobenzo[b]thieno[2,3-b]pyridine-3-carboxylic acid, ethyl ester] | < 20 | significant increase | significant increase | –
COC(=O)c1c(C)nc2sc3c(c2c1N)CCC(O)C3 (racemic) [Example 7, (±)-4-Amino-7-hydroxy-2-methyl-5,6,7,8-tetrahydrobenzo[b]thieno[2,3-b]pyridine-3-carboxylic acid, methyl ester] | – | – | significant increase | –
C#CCOC(=O)c1c(C)nc2sc3c(c2c1N)CCC(O)C3 (racemic) [Example 8, (±)-4-Amino-7-hydroxy-2-methyl-5,6,7,8-tetrahydrobenzo[b]thieno[2,3-b]pyridine-3-carboxylic acid, prop-2-ynyl ester] | – | – | – | significant increase
C#CCCOC(=O)c1c(C)nc2sc3c(c2c1N)CCC(O)C3 (racemic) [Example 9, (±)-4-Amino-7-hydroxy-2-methyl-5,6,7,8-tetrahydrobenzo[b]thieno[2,3-b]pyridine-3-carboxylic acid, but-3-ynyl ester] | – | – | – | significant increase
C=CCCOC(=O)c1c(C)nc2sc3c(c2c1N)CCC(O)C3 (racemic) [Example 10, (±)-4-Amino-7-hydroxy-2-methyl-5,6,7,8-tetrahydrobenzo[b]thieno[2,3-b]pyridine-3-carboxylic acid, but-3-enyl ester] | – | – | significant increase | –
CCOC(=O)c1c(C)nc2sc3c(c2c1N)CCC(O)C3 (single isomer, unassigned; (+)) [Example 3, (+)-4-Amino-7-hydroxy-2-methyl-5,6,7,8-tetrahydrobenzo[b]thieno[2,3-b]pyridine-3-carboxylic acid, ethyl ester] | < 20 | – | – | –

Further lines, with some results ahead:

IC50 [2] [µM] | Compound | CV50 (voltage inducing tonic seizure in 50% of mice) [1] | responding in the 'conflict' session ([3]; 20 mg/kg p.o.) | responding in the 'conflict' session ([3]; 10 mg/kg p.o.)
< 20 | CC#CCOC(=O)c1c(C)nc2sc3c(c2c1N)CCC(O)C3 (racemic) [Example 4, (±)-4-Amino-7-hydroxy-2-methyl-5,6,7,8-tetrahydrobenzo[b]thieno[2,3-b]pyridine-3-carboxylic acid, but-2-ynyl ester] | – | significant increase | –
< 20 | Cc1nc2sc3c(c2c(N)c1C(=O)OCC1CCC1)CCC(O)C3 (racemic) [Example 5, (±)-4-Amino-7-hydroxy-2-methyl-5,6,7,8-tetrahydrobenzo[b]thieno[2,3-b]pyridine-3-carboxylic acid, cyclobutylmethyl ester] | – | – | –
< 20 | Cc1nc2sc3c(c2c(N)c1C(=O)OCC1CC1)CCC(O)C3 (racemic) [Example 6, (±)-4-Amino-7-hydroxy-2-methyl-5,6,7,8-tetrahydrobenzo[b]thieno[2,3-b]pyridine-3-carboxylic acid, cyclopropylmethyl ester] | – | significant increase | –
< 20 | CCOC(=O)c1c(C)nc2sc3c(c2c1N(C)C)CCC(OC)C3 (racemic) [Example 19, (±)-4-Dimethylamino-7-methoxy-2-methyl-5,6,7,8-tetrahydrobenzo[b]thieno[2,3-b]pyridine-3-carboxylic acid, ethyl ester] | – | – | –
